Results published in ChEMBL document CHEMBL1201862, “PubChem BioAssay data set” (2004).
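Values below derive from 48-hour exposures of cells grown in 96-well plates, with endpoints linearly interpolated between the two concentrations bracketing the appropriate inhibition level. GI50 is the concentration that inhibits growth by half.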 Calls of active or inactive are those of the source. No stated cut-off is given here; in the data, active = GI50 up to about 1.1 µM and inactive = higher.

What was measured:
Assay in all cases: growth of human tumour cells (NCI), 48 h
SF-295 = system: SF-295
A498 = system: A498
MOLT-4 = system: MOLT-4
CCRF-CEM = system: CCRF-CEM
RPMI-8226 = system: RPMI-8226
COLO 205 = system: COLO 205
NCI-H226 = system: NCI-H226
HOP-92 = system: HOP-92
EKVX = system: EKVX
HCC 2998 = system: HCC 2998
SK-MEL-2 = system: SK-MEL-2
SN12C = system: SN12C
SW-620 = system: SW-620
ACHN = system: ACHN
SK-OV-3 = system: SK-OV-3
IGROV-1 = system: IGROV-1
K562 = system: K562

Row | SMILES | GI50 (SF-295) | GI50 (A498) | GI50 (MOLT-4) | GI50 (CCRF-CEM) | GI50 (RPMI-8226) | GI50 (COLO 205) | GI50 (NCI-H226) | GI50 (HOP-92) | GI50 (EKVX) | GI50 (HCC 2998) | GI50 (SK-MEL-2) | GI50 (SN12C) | GI50 (SW-620) | GI50 (ACHN) | GI50 (SK-OV-3) | GI50 (IGROV-1) | GI50 (K562)
1 | O=C(CSc1nc(-c2ccccc2)c(-c2ccccc2)[nH]1)NNC(=S)Nc1ccccc1 | 49.9 µM (inactive) | > 100 µM (inactive) | 33.7 µM (inactive) | 39.4 µM (inactive) | 27.6 µM (inactive) | 61.7 µM (inactive) | > 100 µM (inactive) | 36.2 µM (inactive) | 0.414 µM (active) | > 100 µM (inactive) | > 100 µM (inactive) | > 100 µM (inactive) | > 100 µM (inactive) | 85.1 µM (inactive) | > 100 µM (inactive) | 82.4 µM (inactive) | –
2 | COC(=O)C(Cc1cc(OC)c(OC)c(OC)c1)c1ccc(OC)cc1 (stereo not drawn) | > 100 µM (inactive) | > 100 µM (inactive) | 62.7 µM (inactive) | 88.5 µM (inactive) | 44.7 µM (inactive) | > 100 µM (inactive) | > 100 µM (inactive) | 85.9 µM (inactive) | > 100 µM (inactive) | – | – | > 100 µM (inactive) | > 100 µM (inactive) | > 100 µM (inactive) | – | > 100 µM (inactive) | 88.9 µM (inactive)
3 | Cn1cc(NC(=O)c2cc(NC(=O)Nc3cc(C(=O)Nc4cc(C(=O)NCCC(=N)N)n(C)c4)n(C)c3)cn2C)cc1C(=O)NCCC(=N)N | 33.9 µM (inactive) | 25.1 µM (inactive) | > 100 µM (inactive) | 22 µM (inactive) | – | 33 µM (inactive) | – | 42.2 µM (inactive) | 52.2 µM (inactive) | 48.1 µM (inactive) | – | 86.7 µM (inactive) | > 100 µM (inactive) | 25.2 µM (inactive) | > 100 µM (inactive) | 24.5 µM (inactive) | 51.8 µM (inactive)
4 | CCOC(=O)C(=O)CC1=Nc2ccccc2SC(c2cccc(C)c2)C1 (stereo not drawn) | – | 18.1 µM (inactive) | 17.3 µM (inactive) | 20.6 µM (inactive) | 23.7 µM (inactive) | > 10 µM (inactive) | 16.9 µM (inactive) | 16 µM (inactive) | 21.5 µM (inactive) | 16.3 µM (inactive) | 16.3 µM (inactive) | 17.1 µM (inactive) | 25.6 µM (inactive) | 16.6 µM (inactive) | > 10 µM (inactive) | 18.4 µM (inactive) | 19.7 µM (inactive)
5 | COC(=O)C1=CCC2c3[nH]c4ccccc4c3CCN2C1 (stereo not drawn) | > 354 µM (inactive) | – | > 354 µM (inactive) | > 354 µM (inactive) | > 354 µM (inactive) | > 354 µM (inactive) | 203 µM (inactive) | > 354 µM (inactive) | 343 µM (inactive) | > 354 µM (inactive) | > 354 µM (inactive) | > 354 µM (inactive) | > 354 µM (inactive) | > 354 µM (inactive) | > 354 µM (inactive) | > 354 µM (inactive) | > 354 µM (inactive)
6 | CCOC(=O)C(Cc1ccccc1)NC(=O)c1ccc(/N=N/N(C)C)cc1 (stereo not drawn) | > 100 µM (inactive) | > 100 µM (inactive) | > 100 µM (inactive) | > 100 µM (inactive) | > 100 µM (inactive) | > 100 µM (inactive) | > 100 µM (inactive) | – | > 100 µM (inactive) | > 100 µM (inactive) | > 100 µM (inactive) | > 100 µM (inactive) | > 100 µM (inactive) | > 100 µM (inactive) | > 100 µM (inactive) | > 100 µM (inactive) | > 100 µM (inactive)
7 | C=C1CC(C/C=C(\C)CC2CC(=C)C(=O)O2)OC1=O (stereo not drawn) | > 100 µM (inactive) | > 100 µM (inactive) | > 100 µM (inactive) | > 100 µM (inactive) | – | > 100 µM (inactive) | – | > 100 µM (inactive) | > 100 µM (inactive) | > 100 µM (inactive) | > 100 µM (inactive) | > 100 µM (inactive) | > 100 µM (inactive) | > 100 µM (inactive) | > 100 µM (inactive) | > 100 µM (inactive) | > 100 µM (inactive)
8 | Nc1nc2c(N)cc(C(F)(F)F)cc2nc1-c1ccccc1 | > 100 µM (inactive) | > 100 µM (inactive) | 38.4 µM (inactive) | > 100 µM (inactive) | – | > 100 µM (inactive) | > 100 µM (inactive) | > 100 µM (inactive) | 4 µM (inactive) | > 100 µM (inactive) | > 100 µM (inactive) | > 100 µM (inactive) | > 100 µM (inactive) | > 100 µM (inactive) | > 100 µM (inactive) | > 100 µM (inactive) | > 100 µM (inactive)
9 | CCc1cccc(C(C)C)c1NC(=O)C(=O)C1C(=O)NC(=O)NC1=O | > 100 µM (inactive) | > 100 µM (inactive) | – | > 100 µM (inactive) | > 100 µM (inactive) | > 100 µM (inactive) | > 100 µM (inactive) | > 100 µM (inactive) | > 100 µM (inactive) | > 100 µM (inactive) | – | > 100 µM (inactive) | > 100 µM (inactive) | > 100 µM (inactive) | > 100 µM (inactive) | > 100 µM (inactive) | > 100 µM (inactive)
10 | CN1c2ccccc2N(C(=O)c2ccccc2)C(CC(=O)O)c2cccn21 (stereo not drawn) | > 100 µM (inactive) | > 100 µM (inactive) | > 100 µM (inactive) | > 100 µM (inactive) | > 100 µM (inactive) | > 100 µM (inactive) | – | 19.4 µM (inactive) | > 100 µM (inactive) | > 100 µM (inactive) | > 100 µM (inactive) | > 100 µM (inactive) | > 100 µM (inactive) | > 100 µM (inactive) | > 100 µM (inactive) | > 100 µM (inactive) | > 100 µM (inactive)
11 | c1ccc2c(c1)CCC/C2=N\OCC1CO1 (stereo not drawn) | 70.1 µM (inactive) | 82 µM (inactive) | 49.3 µM (inactive) | 23.2 µM (inactive) | 55.1 µM (inactive) | > 100 µM (inactive) | – | 5.77 µM (inactive) | > 100 µM (inactive) | > 100 µM (inactive) | 61.2 µM (inactive) | > 100 µM (inactive) | 92.9 µM (inactive) | 68.4 µM (inactive) | > 100 µM (inactive) | > 100 µM (inactive) | 43.8 µM (inactive)
12 | O=C(O)c1ccc([C@@H]2C(=O)N(O)[C@@H]3C=CC[C@@H]32)cc1 | > 100 µM (inactive) | – | > 100 µM (inactive) | > 100 µM (inactive) | > 100 µM (inactive) | > 100 µM (inactive) | > 100 µM (inactive) | – | > 100 µM (inactive) | > 100 µM (inactive) | > 100 µM (inactive) | > 100 µM (inactive) | > 100 µM (inactive) | – | > 100 µM (inactive) | > 100 µM (inactive) | > 100 µM (inactive)
13 | Cc1ccc(S(=O)(=O)c2c(N)c3nc4ccccc4n3c3nc4ccccc4nc23)cc1 | > 100 µM (inactive) | – | > 100 µM (inactive) | > 100 µM (inactive) | > 100 µM (inactive) | > 100 µM (inactive) | > 100 µM (inactive) | – | > 100 µM (inactive) | > 100 µM (inactive) | > 100 µM (inactive) | > 100 µM (inactive) | > 100 µM (inactive) | > 100 µM (inactive) | > 100 µM (inactive) | > 100 µM (inactive) | > 100 µM (inactive)
14 | Cc1ccc(-n2c(=S)[nH]c3ccc(Br)cc3c2=O)cc1 | > 100 µM (inactive) | > 100 µM (inactive) | > 100 µM (inactive) | – | > 100 µM (inactive) | > 100 µM (inactive) | > 100 µM (inactive) | > 100 µM (inactive) | > 100 µM (inactive) | > 100 µM (inactive) | > 100 µM (inactive) | > 100 µM (inactive) | > 100 µM (inactive) | > 100 µM (inactive) | – | > 100 µM (inactive) | > 100 µM (inactive)
15 | CCOC(OC1=C(C#N)CCC1)C(C)[Se]c1ccccc1 (stereo not drawn) | 22.2 µM (inactive) | > 100 µM (inactive) | 18 µM (inactive) | > 100 µM (inactive) | 23.3 µM (inactive) | 27.5 µM (inactive) | 19.7 µM (inactive) | 24.4 µM (inactive) | 30.5 µM (inactive) | 46.7 µM (inactive) | 16.8 µM (inactive) | 14.7 µM (inactive) | – | 32.1 µM (inactive) | > 100 µM (inactive) | 25.8 µM (inactive) | 55.6 µM (inactive)
16 | CCCCCCCCOCC(CO)OCCCCCCCC (stereo not drawn) | 16.3 µM (inactive) | 18.8 µM (inactive) | 19.2 µM (inactive) | 22.5 µM (inactive) | 21.7 µM (inactive) | 20.6 µM (inactive) | 24.4 µM (inactive) | 21.8 µM (inactive) | – | 18.9 µM (inactive) | – | 17.4 µM (inactive) | 19.8 µM (inactive) | 17.2 µM (inactive) | > 100 µM (inactive) | 21.7 µM (inactive) | 18.4 µM (inactive)
17 | CC(=O)O[C@]12CCC[C@H]1C1(O)C(O)CCC[C@H]12 (stereo partly drawn) | > 100 µM (inactive) | – | > 100 µM (inactive) | > 100 µM (inactive) | > 100 µM (inactive) | > 100 µM (inactive) | > 100 µM (inactive) | – | > 100 µM (inactive) | – | > 100 µM (inactive) | > 100 µM (inactive) | > 100 µM (inactive) | > 100 µM (inactive) | > 100 µM (inactive) | – | > 100 µM (inactive)
18 | C/C=C(/CCCCNCCCC)[Si](C)(C)C | 15.8 µM (inactive) | 15.5 µM (inactive) | 11.4 µM (inactive) | 8.26 µM (inactive) | – | 11 µM (inactive) | – | 6.38 µM (inactive) | 12.4 µM (inactive) | 5.66 µM (inactive) | 18.7 µM (inactive) | 16.2 µM (inactive) | 16.6 µM (inactive) | 14 µM (inactive) | 18 µM (inactive) | 19.2 µM (inactive) | 17.6 µM (inactive)
